Reference: patent US12172983B2, “EGFR inhibitors” (Blueprint Medicines Corporation, priority 2019, dated 2024)
Like-named read-outs stand apart in the source and are kept apart here.

Tests used:
[1] = target: T1, EGFR (L858R T790M C797S) (Homo sapiens, UniProt P00533, C797S/L858R/T790M); assay: Biochemical EGFR inhibition assay (Caliper mobility shift), EGFR LRTMCS mutant; details: inhibitory activity against EGFR LRTMCS mutant; apparent IC50; read-out: Ext Enz LRTMCS
T1 construct: purchased SignalChem E10-122VG
Procedure, shortened: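 Kinase reactions proceed at 25° C. to 10%–20% conversion of total peptide, are terminated with 35 mM EDTA, and the phosphopeptide is resolved from substrate by electrophoretic mobility shift. Apparent IC50 values come from plotting percent activity against log compound concentration.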

[2] = system: phosphorylation of EGFR (Tyr1068) in NCI-H1975 cell line that harbors the EGFR L858R T790M mutations; assay: NCI-H1975 pEGFR AlphaLISA assay; type: cell-based; details: 4-5 hours incubation, read-out: Ext pEGFR H1975
Procedure, shortened: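 Phospho-EGFR Tyr1068 AlphaLISA readout: lysates taken from compound-treated H1975 cells (L858R T790M EGFR) after a 4-5 h exposure at 37 °C. Cells had adhered overnight beforehand. IC50 derived by plotting % pEGFR inhibition against log compound concentration.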

[3] = Homo sapiens, NCI-H1975, inhibition of phosphorylation of mutant EGFR in NCI-H1975 cells

T1 sequence (P00533 25-1210 T790M/C797S/L858R): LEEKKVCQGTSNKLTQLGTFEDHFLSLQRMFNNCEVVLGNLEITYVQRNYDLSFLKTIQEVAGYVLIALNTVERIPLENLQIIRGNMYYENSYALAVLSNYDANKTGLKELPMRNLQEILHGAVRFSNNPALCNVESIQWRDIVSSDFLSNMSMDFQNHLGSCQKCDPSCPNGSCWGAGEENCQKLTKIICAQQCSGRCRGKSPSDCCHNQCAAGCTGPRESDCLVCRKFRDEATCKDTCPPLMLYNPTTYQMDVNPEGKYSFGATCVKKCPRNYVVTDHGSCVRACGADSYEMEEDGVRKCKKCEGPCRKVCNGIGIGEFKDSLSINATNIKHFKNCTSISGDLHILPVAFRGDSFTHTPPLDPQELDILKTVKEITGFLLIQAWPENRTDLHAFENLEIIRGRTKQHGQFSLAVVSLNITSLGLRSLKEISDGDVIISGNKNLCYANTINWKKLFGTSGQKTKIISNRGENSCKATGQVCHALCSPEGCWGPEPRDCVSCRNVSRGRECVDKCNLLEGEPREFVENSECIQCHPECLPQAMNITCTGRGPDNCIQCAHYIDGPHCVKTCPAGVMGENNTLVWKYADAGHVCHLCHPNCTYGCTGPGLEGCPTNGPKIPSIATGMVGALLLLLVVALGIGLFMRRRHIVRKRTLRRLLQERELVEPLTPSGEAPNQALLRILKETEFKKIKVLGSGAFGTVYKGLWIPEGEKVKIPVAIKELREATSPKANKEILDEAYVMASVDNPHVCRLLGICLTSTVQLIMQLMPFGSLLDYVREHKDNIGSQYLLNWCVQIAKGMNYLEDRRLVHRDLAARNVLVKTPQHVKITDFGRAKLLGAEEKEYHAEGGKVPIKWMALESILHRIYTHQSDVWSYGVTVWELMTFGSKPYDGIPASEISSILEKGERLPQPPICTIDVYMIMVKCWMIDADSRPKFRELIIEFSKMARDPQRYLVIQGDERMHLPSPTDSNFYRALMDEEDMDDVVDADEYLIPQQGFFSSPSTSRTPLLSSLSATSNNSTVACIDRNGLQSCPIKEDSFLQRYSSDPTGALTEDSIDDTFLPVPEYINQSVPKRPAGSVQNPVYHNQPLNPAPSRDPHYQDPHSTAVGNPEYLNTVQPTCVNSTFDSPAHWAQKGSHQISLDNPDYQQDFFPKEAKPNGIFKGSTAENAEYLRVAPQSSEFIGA

SMILES	IC50 [1]	IC50 [2, 3]	IC50 ([2]; inhibition of phosphorylation of mutant EGFR in NCI-H1975 cells)
CC(C)c1ncc(N2C[C@H](CS(C)(=O)=O)[C@H]2C)c2cnc(Nc3ccnc(N4CC[C@@](C)(O)[C@@H](F)C4)n3)cc12 (single isomer, unassigned) [Compound 138]	≤ 15 nM	≤ 10 nM	–
CC(C)c1ccc(N2C[C@H](CS(C)(=O)=O)[C@H]2C)c2cnc(Nc3cnnc(N4CC[C@](C)(O)[C@H](F)C4)n3)cc12 (single isomer, unassigned) [Compound 141]	≤ 15 nM	10.1 to 20 nM	–
CC(C)c1ccc(N2C[C@H](CS(C)(=O)=O)[C@H]2C)c2cnc(Nc3cnnc(N4CC[C@@](C)(O)[C@@H](F)C4)n3)cc12 (single isomer, unassigned) [Compound 142]	≤ 15 nM	20.1 to 30 nM	–
CO[C@@H]1CCN(c2nccc(Nc3cc4c(C(C)C)cnc(N5CC(CS(C)(=O)=O)C5)c4cn3)n2)C[C@]1(C)F (single isomer, unassigned) [Compound 143]	≤ 15 nM	≤ 10 nM	–
CCOc1ccc(N2CC(CS(=O)(=O)CC)C2)c2cnc(Nc3ccnc(N4CC[C@@H](O)[C@@](C)(F)C4)n3)cc12 (single isomer, unassigned) [Compound 145]	15.1 to 20 nM	20.1 to 30 nM	–
CO[C@@H]1[C@H](O)CN(c2nccc(Nc3cc4c(C(C)C)ccc(N5CC(CS(C)(=O)=O)C5)c4cn3)n2)C[C@@H]1F (single isomer, unassigned) [Compound 148, (3R,4R,5S)-5-fluoro-1-[4-({8-[3-(methanesulfonylmethyl)azetidin-1-yl]-5-(propan-2-yl)isoquinolin-3-yl}amino)pyrimidin-2-yl]-4-methoxypiperidin-3-ol or (3S,4S,5R)-5-fluoro-1-[4-({8-[3-(methanesulfonylmethyl)azetidin-1-yl]-5-(propan-2-yl)isoquinolin-3-yl}amino)pyrimidin-2-yl]-4-methoxypiperidin-3-ol]	≤ 15 nM	≤ 10 nM	–
CO[C@@H]1CN(c2nccc(Nc3cc4c(C(C)C)ccc(N5CC(CS(C)(=O)=O)C5)c4cn3)n2)C[C@H](F)[C@@H]1O (single isomer, unassigned) [Compound 149, (3S,4R,5R)-3-fluoro-1-[4-({8-[3-(methanesulfonylmethyl)azetidin-1-yl]-5-(propan-2-yl)isoquinolin-3-yl}amino)pyrimidin-2-yl]-5-methoxypiperidin-4-ol or (3R,4S,5S)-3-fluoro-1-[4-({8-[3-(methanesulfonylmethyl)azetidin-1-yl]-5-(propan-2-yl)isoquinolin-3-yl}amino)pyrimidin-2-yl]-5-methoxypiperidin-4-ol]	15.1 to 20 nM	10.1 to 20 nM	–
CC(C)c1ccc(N2C[C@H](CS(C)(=O)=O)[C@H]2C)c2cnc(Nc3ccnc(N4CC[C@H](N)C(F)(F)C4)n3)cc12 (single isomer, unassigned) [Compound 151, N-{2-[(4S)-4-amino-3,3-difluoropiperidin-1-yl]pyrimidin-4-yl}-8-[(2R,3S)-3-(methanesulfonylmethyl)-2-methylazetidin-1-yl]-5-(propan-2-yl)isoquinolin-3-amine or N-{2-[(4R)-4-amino-3,3-difluoropiperidin-1-yl]pyrimidin-4-yl}-8-[(2R,3S)-3-(methanesulfonylmethyl)-2-methylazetidin-1-yl]-5-(propan-2-yl)isoquinolin-3-amine]	≤ 15 nM	≤ 10 nM	–
CC(C)c1ccc(N2C[C@H](CS(C)(=O)=O)[C@H]2C)c2cnc(Nc3ccnc(N4CCC(N)C(F)(F)C4)n3)cc12 (single isomer, unassigned) [Compound 152, N-(2-((R)-4-amino-3,3-difluoropiperidin-1-yl)pyrimidin-4-yl)-5-isopropyl-8-((2R,3S)-2-methyl-3-(methylsulfonylmethyl)azetidin-1-yl(isoquinolin-3-amine or N-(2-((S)-4-amino-3,3-difluoropiperidin-1-yl)pyrimidin-4-yl)-5-isopropyl-8-((2R,3S)-2-methyl-3-((methylsulfonyl)methyl)azetidin-1-yl)isoquinolin-3-amine]	≤ 15 nM	≤ 10 nM	–
CC(C)c1ccc(N2CC(CS(C)(=O)=O)C2)c2cnc(Nc3ccnc(N4CC[C@](C)(O)C(F)(F)C4)n3)cc12 (single isomer, unassigned) [Compound 153, (4S)-3,3-difluoro-1-[4-({8-[3-(methanesulfonylmethyl)azetidin-1-yl]-5-(propan-2-yl)isoquinolin-3-yl}amino)pyrimidin-2-yl]-4-methylpiperidin-4-ol or (4R)-3,3-difluoro-1-[4-({8-[3-(methanesulfonylmethyl)azetidin-1-yl]-5-(propan-2-yl)isoquinolin-3-yl}amino)pyrimidin-2-yl]-4-methylpiperidin-4-ol]	≤ 15 nM	10.1 to 20 nM	–
CC(CF)c1ccc(N2CC(CS(C)(=O)=O)C2)c2cnc(Nc3ccnc(N4CC[C@@H](O)[C@@](C)(F)C4)n3)cc12 (single isomer, unassigned) [Compound 154]	≤ 15 nM	20.1 to 30 nM	–
CC(C)c1ccc(N2CC(CS(C)(=O)=O)C2)c2cnc(Nc3ccnc(N4C[C@@H](F)[C@@H](O)[C@@](C)(F)C4)n3)cc12 (single isomer, unassigned) [Compound 155, (3S,4R,5R)-3,5-difluoro-1-[4-({8-[3-(methanesulfonylmethyl)azetidin-1-yl]-5-(propan-2-yl)isoquinolin-3-yl}amino)pyrimidin-2-yl]-3-methylpiperidin-4-ol or (3R,4S,5S)-3,5-difluoro-1-[4-({8-[3-(methanesulfonylmethyl)azetidin-1-yl]-5-(propan-2-yl)isoquinolin-3-yl}amino)pyrimidin-2-yl]-3-methylpiperidin-4-ol]	≤ 15 nM	≤ 10 nM	–
CC(C)c1ccc(N2CC(CS(C)(=O)=O)C2)c2cnc(Nc3ccnc(N4C[C@@H](F)[C@@H](O)[C@](C)(F)C4)n3)cc12 (single isomer, unassigned) [Compound 156, (3R,4R,5R)-3,5-difluoro-1-[4-({8-[3-(methanesulfonylmethyl)azetidin-1-yl]-5-(propan-2-yl)isoquinolin-3-yl}amino)pyrimidin-2-yl]-3-methylpiperidin-4-ol or (3S,4S,5S)-3,5-difluoro-1-[4-({8-[3-(methanesulfonylmethyl)azetidin-1-yl]-5-(propan-2-yl)isoquinolin-3-yl}amino)pyrimidin-2-yl]-3-methylpiperidin-4-ol]	≤ 15 nM	≤ 10 nM	–
CC(C)c1cc(F)c(N2CC(CS(C)(=O)=O)C2)c2cnc(Nc3ccnc(N4CC[C@@H](O)[C@@](C)(F)C4)n3)cc12 (single isomer, unassigned) [Compound 157]	≤ 15 nM	≤ 10 nM	–
CO[C@H]1CCN(c2nccc(Nc3cc4c(C(C)C)ccc(N5CC(CS(C)(=O)=O)C5)c4cn3)n2)CC1(F)F (single isomer, unassigned) [Compound 158]	15.1 to 20 nM	10.1 to 20 nM	–
CO[C@@H]1CCN(c2nccc(Nc3cc4c(C(C)C)ccc(N5CC(CS(C)(=O)=O)C5)c4cn3)n2)CC1(F)F (single isomer, unassigned) [Compound 159]	15.1 to 20 nM	20.1 to 30 nM	–
CCS(=O)(=O)CC1CN(c2ncc(C(C)C)c3cc(Nc4ccnc(N5CCN[C@@H](C(F)F)C5)n4)ncc23)C1 (single isomer, unassigned) [Compound 160, N-{2-[(3R)-3-(difluoromethyl)piperazin-1-yl]pyrimidin-4-yl}-8-{3-[(ethanesulfonyl)methyl]azetidin-1-yl}-5-(propan-2-yl)-2,7-naphthyridin-3-amine or N-{2-[(3S)-3-(difluoromethyl)piperazin-1-yl]pyrimidin-4-yl}-8-{3-[(ethanesulfonyl)methyl]azetidin-1-yl}-5-(propan-2-yl)-2,7-naphthyridin-3-amine]	15.1 to 20 nM	30.1 to 50 nM	–
[2H]C([2H])([2H])O[C@@H]1CCN(c2nccc(Nc3cc4c(C(C)C)ncc(N5C[C@H](CS(C)(=O)=O)[C@H]5C)c4cn3)n2)C[C@@H]1F (single isomer, unassigned) [Compound 161, N-{2-[(3S,4R)-3-fluoro-4-(^2H3)methoxypiperidin-1-yl]pyrimidin-4-yl}-8-[(2R,3S)-3-(methanesulfonylmethyl)-2-methylazetidin-1-yl]-5-(propan-2-yl)-2,6-naphthyridin-3-amine or N-{2-[(3R,4S)-3-fluoro-4-(^2H3)methoxypiperidin-1-yl]pyrimidin-4-yl}-8-[(2R,3S)-3-(methanesulrfonylmethyl)-2-methylazetidin-1-yl]-5-(propan-2-yl)-2,6-naphthyridin-3-amine]	≤ 15 nM	≤ 10 nM	–
[2H]C([2H])([2H])O[C@@H]1CCN(c2nccc(Nc3cc4c(C(C)C)ncc(N5C[C@H](CS(C)(=O)=O)[C@H]5C)c4cn3)n2)C[C@@H]1F (single isomer, unassigned) [Compound 162, N-{2-[(3R,4S)-3-fluoro-4-(^2H3)methoxypiperidin-1-yl]pyrimidin-4-yl}-8-[(2R,3S)-3-(methanesulfonylmethyl)-2-methylazetidin-1-yl]-5-(propan-2-yl)-2,6-naphthyridin-3-amine or N-{2-[(3S,4R)-3-fluoro-4-(^2H3)methoxypiperidin-1-yl]pyrimidin-4-yl}-8-[(2R,3S)-3-(methanesulfonylmethyl)-2-methylazetidin-1-yl]-5-(propan-2-yl)-2,6-naphthyridin-3-amine]	≤ 15 nM	–	≤ 10 nM
CC(CF)c1cnc(N2CC(CS(C)(=O)=O)C2)c2cnc(Nc3ccnc(N4CC[C@@H](O)[C@@](C)(F)C4)n3)cc12 (single isomer, unassigned) [Compound 163]	≤ 15 nM	30.1 to 50 nM	–
